Like-named read-outs stand apart in the source and are kept apart here.
Target: T1, BCL6 (Homo sapiens, UniProt P41182)
T1 construct: endogenous in cells; host or cells: T47D breast cancer epithelial cells
Assay: Immunofluorescence protocol for high content imaging of BCL6 (degradation) in T47D cells, 3 days compound treatment
Format: cell-based
Conditions: for Dmax: read-out: Mean Dmax (%)** category; for DC50: read-out: Mean DC50 (nM)* category
Experimental: Immunofluorescence Protocol for High Content Imaging of BCL6
T47D cells were seeded in 100 μl volume of RPMI1640-10% FBS in a 96-well black/clear bottom plates for adherent lines (Corning #3904).
Day 1. T47D breast cancer epithelial cells were seeded at a density so that confluence is ˜70-90% at endpoint. Cells were seeded at 7K/0.1 ml/well the morning prior to the addition of exemplary bifunctional degradation compounds.
Day 2. Prepare an 11 point 3-fold serial dilution of exemplary bifunctional compound in DMSO and aliquot an appropriate volume to cell growth media to generate a 2× final concentration of exemplary bifunctional compound. Add an equal volume (0.1 ml) of 2× exemplary bifunctional compound/media mix to previously plated cells, for a final top concentration in aqueous cell growth media of 0.1 or 1 μM. Incubate for 3 days at 37° C., 5% CO2.
Day 5 Immunofluorescence. Discard cell media. Wash wells with 200 μl of room temperature phosphate-buffered saline (PBS). Prepared 4% paraformaldehyde (PFA) from 16% PFA (Electron Microscopy Sciences #15710) using 1×PBS. Fifty μl of 4% PF was added to each well and incubate for 15 minutes at room temperature to fix the cells. The PFA was aspirated and the cells washed twice with PBS (200 μl)).
Prepared 0.1% Triton X-100 in PBS using 10% triton X-100 stock. The cells were permeabilized by adding 100 ul of the 0.1% Triton X-100 in PBS to each well to permeabilize cells and incubating at room temperature for 15 minutes. Cells were washed twice with PBS.
Prepared 3% BSA/PBS (from Thermofisher #37515 Blocker BSA in TBS, 10%), and 100 ul was added to each well. The cells were incubated for at least 1 hour at room temperature.
Prepared 1% BSA/PBS using Blocker BSA/PBS, and the 3% BSA/PBS removed from the wells.
For no primary antibody controls, 50 μl 1% BSA/PBS was added.
Primary antibody (BCL6 Rb Ab, CST-14895, Cell Signaling) was diluted 1:300 in 1% BSA/PBS using Blocker BSA/PBS.
Fifty μl of primary antibody added to all remaining wells (i.e., all wells other than the primary antibody controls) and the cells were incubated overnight at 4° C. with slow orbital movement.
Day 6. Contents of the wells was removed and the cells washed four times with 200 ul PBS. 1% BSA/PBS was prepared using Blocker BSA in PBS.
Diluted secondary antibody goat anti-Rb IgG Alexa-488 1:1000, and cell mask-Alexa-647 1:3000 in 1% BSA/PBS in the same mix. Add 50 μl to each well and incubate at room temperature for 1 hour in the dark.
Cells were washed three times with 200 ul PBS, and then incubated for 10 minutes with 100 ul Hoechst dye at 1 μg/mL (20 mM stock) to stain cell nuclei. Wells were then washed with 200 μl PBS, and 100 ul of PBS was added to each well and the plate covered plate with a plastic opaque cover. Plates were stored at 4° C. and covered in aluminum foil until imaged.
Plates were equilibrated to room temperature prior to reading. The bottom of the plate was wiped with 70% isopropanol immediately prior to imaging.
10×, 4 fields/well, include Top hat smoothing in the analysis protocol.
16% paraformaldehyde: Electron Microscopy Sciences #15710
Hoechst: Thermofisher #62249
Blocker BSA in PBS, 10%: Thermofisher #37515
Blocker BSA in TBS, 10%: Thermofisher #37520
Goat anti-rabbit or mouse AlexaFluor-488: Thermofisher #A11008
Cell mask deep red AlexaFluor-647: Thermofisher #C10046
Wash buffer, PBS: 20×PBS, Thermofisher

[1] = T47D cells, 3 days compound treatment

| Dmax (T47D) [%] | DC50 [nM] | DC50 [1] [nM] | Dmax [1] [%] | Structure (SMILES) |
| --- | --- | --- | --- | --- |
| ≥ 70 | < 10 |  |  | CNC(=O)COc1cc2cc(Nc3nc(N4CCC(CN5CC(N6CCN(c7ccc8c(c7)CN(C7CCC(=O)NC7=O)C8=O)CC6)C5)CC4)ncc3Cl)ccc2n(C(C)C)c1=O (stereo not shown) [Compound 242, 2-({6-[(5-chloro-2-{4-[(3-{4-[2-(2,6-dioxopiperidin-3-yl)-1-oxo-2,3-dihydro-1H-isoindol-5-yl]piperazin-1-yl}azetidin-1-yl)methyl]piperidin-1-yl}pyrimidin-4-yl)amino]-2-oxo-1-(propan-2-yl)-1,2-dihydroquinolin-3-yl}oxy)-N-methylacetamide] |
| 50 to 70 | < 10 |  |  | CNC(=O)COc1cc2cc(Nc3nc(N4CCC(OC5CCC6(CC5)CN(c5ccc(F)c7c5CN(C5CCC(=O)NC5=O)C7=O)C6)CC4)ncc3Cl)ccc2n(C(C)C)c1=O (stereo not shown) [Compound 312, 2-{[6-({5-chloro-2-[4-({2-[2-(2,6-dioxopiperidin-3-yl)-7-fluoro-1-oxo-2,3-dihydro-1H-isoindol-4-yl]-2-azaspiro[3.5]nonan-7-yl}oxy)piperidin-1-yl]pyrimidin-4-yl}amino)-2-oxo-1-(propan-2-yl)-1,2-dihydroquinolin-3-yl]oxy}-N-methylacetamide] |
|  |  | < 10 | ≥ 70 | CNC(=O)COc1cc2c(F)c(Nc3nc(N4CCC(O[C@H]5C[C@H](N6CCC(c7ccc8c(c7F)CN(C7CCC(=O)NC7=O)C8=O)CC6)C5)CC4)ncc3Cl)ccc2n(C(C)C)c1=O (stereo partly shown) [Compound 173] |
|  |  | < 10 |  | CNC(=O)COc1cc2cc(Nc3nc(N4CCOC5(CN(CCC6CCN(c7ccc8c(c7)C(=O)N(C7CCC(=O)NC7=O)C8=O)CC6)C5)C4)ncc3Cl)ccc2n(C(C)C)c1=O (stereo not shown) [Compound 145, 2-{[6-({5-chloro-2-[2-(2-{1-[2-(2,6-dioxopiperidin-3-yl)-1,3-dioxo-2,3-dihydro-1H-isoindol-5-yl]piperidin-4-yl}ethyl)-5-oxa-2,8-diazaspiro[3.5]nonan-8-yl]pyrimidin-4-yl}amino)-2-oxo-1-(propan-2-yl)-1,2-dihydroquinolin-3-yl]oxy}-N-methylacetamide] |
|  |  | 10 to 50 | 50 to 70 | CNC(=O)COc1cc2cc(Nc3nc(N4CCC(F)(CN5CCC6(CC5)CN(c5ccc7c(c5)C(=O)N(C5CCC(=O)NC5=O)C7=O)C6)CC4)ncc3Cl)ccc2n(C(C)C)c1=O (stereo not shown) [Compound 43, 2-{[6-({5-chloro-2-[4-({2-[2-(2,6-dioxopiperidin-3-yl)-1,3-dioxo-2,3-dihydro-1H-isoindol-5-yl]-2,7-diazaspiro [3.5]nonan-7-yl}methyl)-4-fluoropiperidin-1-yl]pyrimidin-4-yl}amino)-2-oxo-1-(propan-2-yl)-1,2-dihydroquinolin-3-yl]oxy}-N-methylacetamide] |
|  |  | < 10 | 50 to 70 | CNC(=O)COc1cc2cc(Nc3nc(N4CCN(C(C)(C)C5CCN(c6cc(F)c7c(c6)CN(C6CCC(=O)NC6=O)C7=O)CC5)CC4)ncc3Cl)ccc2n(C(C)C)c1=O (stereo not shown) [Compound 76, 2-{[6-({5-chloro-2-[4-(2-{1-[2-(2,6-dioxopiperidin-3-yl)-7-fluoro-1-oxo-2,3-dihydro-1H-isoindol-5-yl]piperidin-4-yl}propan-2-yl)piperazin-1-yl]pyrimidin-4-yl}amino)-2-oxo-1-(propan-2-yl)-1,2-dihydroquinolin-3-yl]oxy}-N-methylacetamide] |
| ≥ 70 | < 10 |  |  | CNC(=O)COc1cc2cc(Nc3nc(N4CCC(CN5CCC6(CC5)CCN6c5cccc6c5C(=O)N(C5CCC(=O)NC5=O)C6=O)CC4)ncc3Cl)ccc2n(C(C)C)c1=O (stereo not shown) [Compound 333, 2-{[6-({5-chloro-2-[4-({1-[2-(2,6-dioxopiperidin-3-yl)-1,3-dioxo-2,3-dihydro-1H-isoindol-4-yl]-1,7-diazaspiro[3.5]nonan-7-yl}methyl)piperidin-1-yl]pyrimidin-4-yl}amino)-2-oxo-1-(propan-2-yl)-1,2-dihydroquinolin-3-yl]oxy}-N-methylacetamide] |
|  |  | < 10 | 50 to 70 | CNC(=O)COc1cc2cc(Nc3nc(N4CCN(CC5CCN(c6c(F)ccc7c6C(=O)N(C6CCC(=O)NC6=O)C7=O)CC5)CC4)ncc3Cl)ccc2n(C)c1=O (stereo not shown) [Compound 35, 2-{[6-({5-chloro-2-[4-({1-[2-(2,6-dioxopiperidin-3-yl)-5-fluoro-1,3-dioxo-2,3-dihydro-1H-isoindol-4-yl]piperidin-4-yl}methyl)piperazin-1-yl]pyrimidin-4-yl}amino)-1-methyl-2-oxo-1,2-dihydroquinolin-3-yl]oxy}-N-methylacetamide] |
| ≥ 70 | < 10 |  |  | CNC(=O)COc1cc2c(F)c(Nc3nc(N4CCC(CN5CCC6(CN(c7ccc8c(c7F)CN(C7CCC(=O)NC7=O)C8=O)C6)C(F)(F)C5)CC4)ncc3Cl)ccc2n(C(C)C)c1=O (stereo not shown) [Compound 376, 2-{[6-({5-chloro-2-[4-({2-[2-(2,6-dioxopiperidin-3-yl)-4-fluoro-1-oxo-2,3-dihydro-1H-isoindol-5-yl]-5,5-difluoro-2,7-diazaspiro[3.5]nonan-7-yl}methyl)piperidin-1-yl]pyrimidin-4-yl}amino)-5-fluoro-2-oxo-1-(propan-2-yl)-1,2-dihydroquinolin-3-yl]oxy}-N-methylacetamide] |
| ≥ 70 | < 10 |  |  | CNC(=O)COc1cc2c(F)c(Nc3nc(N4CCC(CN5CCC6(CC5)CN(c5ccc7c(c5)C(=O)N(C5CCC(=O)NC5=O)C7=O)C6(C)C)CC4)ncc3Cl)ccc2n(C(C)C)c1=O (stereo not shown) [Compound 375, 2-{[6-({5-chloro-2-[4-({2-[2-(2,6-dioxopiperidin-3-yl)-1,3-dioxo-2,3-dihydro-1H-isoindol-5-yl]-1,1-dimethyl-2,7-diazaspiro[3.5]nonan-7-yl}methyl)piperidin-1-yl]pyrimidin-4-yl}amino)-5-fluoro-2-oxo-1-(propan-2-yl)-1,2-dihydroquinolin-3-yl]oxy}-N-methylacetamide] |
|  |  | < 10 | 50 to 70 | CNC(=O)COc1cc2cc(Nc3nc(N4CCC(CN5CC6(CCN(c7ccc8c(c7)CN(C7CCC(=O)NC7=O)C8=O)CC6(F)F)C5)CC4)ncc3Cl)ccc2n(C(C)C)c1=O (stereo not shown) [Compound 136, 2-{[6-({5-chloro-2-[4-({7-[2-(2,6-dioxopiperidin-3-yl)-1-oxo-2,3-dihydro-1H-isoindol-5-yl]-5,5-difluoro-2,7-diazaspiro[3.5]nonan-2-yl}methyl)piperidin-1-yl]pyrimidin-4-yl}amino)-2-oxo-1-(propan-2-yl)-1,2-dihydroquinolin-3-yl]oxy}-N-methylacetamide] |

| Structure (SMILES) | Dmax (T47D) [%] | DC50 [nM] | DC50 [1] [nM] | Dmax [1] [%] |
| --- | --- | --- | --- | --- |
| CNC(=O)COc1cc2cc(Nc3nc(N4CCC(O[C@H]5C[C@H](N6CC[C@H](c7ccc8c(c7F)CN([C@H]7CCC(=O)NC7=O)C8=O)C(C)(C)C6)C5)CC4)ncc3Cl)ccc2n(C(C)C)c1=O [Compound 210, 2-({6-[(5-chloro-2-{4-[(1r,3r)-3-[(4S)-4-{2-[(3S)-2,6-dioxopiperidin-3-yl]-4-fluoro-1-oxo-2,3-dihydro-1H-isoindol-5-yl}-3,3-dimethylpiperidin-1-yl]cyclobutoxy]piperidin-1-yl}pyrimidin-4-yl)amino]-2-oxo-1-(propan-2-yl)-1,2-dihydroquinolin-3-yl}oxy)-N-methylacetamide] |  |  | < 10 | ≥ 70 |
| CNC(=O)COc1cc2cc(Nc3nc(N4CCC(O[C@H]5C[C@H](N6CCC(c7ccc8c(c7F)CN(C7CCC(=O)NC7=O)C8=O)CC6)C5)CC4)ncc3Cl)ccc2n(C2CCCCC2)c1=O (stereo partly shown) [Compound 411, 2-({6-[(5-chloro-2-{4-[(1r,3r)-3-{4-[2-(2,6-dioxopiperidin-3-yl)-4-fluoro-1-oxo-2,3-dihydro-1H-isoindol-5-yl]piperidin-1-yl}cyclobutoxy]piperidin-1-yl}pyrimidin-4-yl)amino]-1-cyclohexyl-2-oxo-1,2-dihydroquinolin-3-yl}oxy)-N-methylacetamide] | ≥ 70 | < 10 |  |  |

— patent US11986532B2 (Arvinas Operations, Inc., priority 2021, dated 2024)
